Results published in paper PMC8584173, “The Cytotoxic Effect of Copper (II) Complexes with Halogenated 1,3-Disubstituted Arylthioureas on Cancer and Bacterial Cells” (International Journal of Molecular Sciences, 2021).

Tests used:
C. albicans ATCC 90028 = assay: MIC, twofold serial microdilution; type: cell-based, Candida albicans; conditions: C. albicans ATCC 90028, 24 h, 35 °C
Experimental: (§1) The antimicrobial activity of the compounds was tested on Gram-positive bacteria (Staphylococcus aureus NCTC 4163, Staphylococcus aureus ATCC 25923, Staphylococcus aureus ATCC 6538, Staphylococcus aureus ATCC 29213, Staphylococcus epidermidis ATCC 12228, Staphylococcus epidermidis ATCC 35984), Gram-negative rods (Escherichia coli ATCC 10538, Escherichia coli ATCC 25922, Pseudomonas aeruginosa ATCC 15442, Pseudomonas aeruginosa ATCC 27863) and yeasts (Candida albicans ATCC 10231, Candida albicans ATCC 90028, Candida parapsilosis ATCC 22019). Hospital methicillin-resistant strains of Staphylococcus aureus and Staphylococcus epidermidis were obtained from the collection of the Department of Pharmaceutical Microbiology, Medical University of Warsaw, Poland.
(§2) Antifungal activities were assessed using Mueller–Hinton agar + 2% glucose and 0.5 µg/mL methylene blue dye medium. Sterile filter paper discs (9 mm diameter, Whatman Number 3 chromatography paper) were dripped with tested compound solutions (in dimethylsulfoxide, DMSO) to load 400 μg of a given compound per disc. Dry discs were placed on the surface of appropriate agar medium. The results (diameter of the growth inhibition zone) were read after 18 h of incubation at 35 °C. Minimal inhibitory concentration (MIC) was tested by the twofold serial microdilution method (in 96-well microtiter plates) using Mueller–Hinton broth medium (Beckton Dickinson) for bacteria or RPMI-1640 medium for Candida species, according to CLSI guidelines. The stock solution of tested agent was prepared in DMSO and diluted in sterile water. […] The final inoculum of all studied microorganisms was 10^5 CFU/ mL^−1 (colony forming units per ml). Minimal inhibitory concentrations (the lowest concentration of a tested agent that prevents visible growth of a microorganism) were read after 18 h (bacteria) or 24 h (yeasts) of incubation at 35 °C.

C. albicans ATCC 10231 = assay: MIC, twofold serial microdilution; type: cell-based, Candida albicans; conditions: C. albicans ATCC 10231, 24 h, 35 °C
Experimental: as §1, §2

S. aureus 586 = assay: MIC, hospital MRSA strain; type: cell-based, Staphylococcus aureus; conditions: hospital MRSA S. aureus 586
Method in brief: (§3)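 Twofold serial broth microdilution per CLSI, in Mueller–Hinton broth for bacteria and RPMI-1640 for Candida, with a final inoculum of 10^5 CFU/mL. Compounds were dissolved in DMSO and diluted in sterile water.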

S. aureus 497 = assay: MIC, hospital MRSA strain; type: cell-based, Staphylococcus aureus; conditions: hospital MRSA S. aureus 497
Method in brief: as §3

S. aureus 567 = assay: MIC, hospital MRSA strain; type: cell-based, Staphylococcus aureus; conditions: hospital MRSA S. aureus 567
Method in brief: as §3

S. aureus 568 = assay: MIC, hospital MRSA strain; type: cell-based, Staphylococcus aureus; conditions: hospital MRSA S. aureus 568
Method in brief: as §3

S. aureus 572 = assay: MIC, hospital MRSA strain; type: cell-based, Staphylococcus aureus; conditions: for MIC: hospital MRSA S. aureus 572
Method in brief: as §3

[1] = test system: Bacillus subtilis H17 (rec+); assay: Bacillus subtilis rec-assay, H17; type: cell-based; conditions: B. subtilis H17; 256 µg per disc (NOQ 2 µg per disc)
Experimental: DNA-damaging activity of compounds was tested by rec-assay using two genetically modified Bacillus subtilis strains: M45 (rec^−) and H17 (rec^+). Tested compounds were dissolved in DMSO, and 10 µL of each solution was dripped onto sterile cotton discs (Rotilabo) to load 256 µg of a given compound per 9 mm disc. Discs were placed on the surface nutrient agar plates (Difco), inoculated with 100 µL of bacterial overnight culture and incubated […] at 35 °C. After incubation, the growth inhibition zones were measured. […] Results of the genotoxicity test were estimated after 18 h of incubation at 35 °C by comparing the diameter of the inhibition zone on the B. subtilis M45 (rec^−) strain with that on the B. subtilis H17 (rec^+) strain.

[2] = test system: PC3 (human metastatic prostate cancer); assay: MTT cytotoxicity assay, PC3; type: cell-based; conditions: for IC50: PC3, 72 h, MTT; for fold more active than cisplatin: PC3 cell lines
Experimental: (§4) The human primary (SW480), metastatic (SW620) colon cancer, metastatic prostate cancer (PC3) and human immortal keratinocyte (HaCaT) cell lines were purchased from the American Type Culture Collection (ATCC, Rockville, USA). The cells were cultured in medium according to protocols (MEM for SW480 and SW620, RPMI 1640 for PC3 and DMEM for HaCaT cells) supplemented with 10% fetal bovine serum (FBS), penicillin (100 U/mL) and streptomycin (100 μg/mL) and cultured in 37 °C/ 5% CO2 humidified incubator. The cells were cultured until appropriate confluence was achieved (80–90%). Next, they were harvested by treatment with 0.25% trypsin (Gibco Life Technologies, USA) and used for studies.
(§5) Cells without studied compounds in medium were used as a control.
(§6) The cell viability was assessed by determination of MTT salt (3-(4,5-dimethylthiazol-2-yl)-2,5-diphenyltetrazolium bromide) conversion by mitochondrial dehydrogenase. MTT assay was performed as previously described. Experiments were repeated three times. Cell viability was presented as a percentage of MTT reduction in the treated cells versus the control cells. Number of viable cells cultured without studied compounds was assumed to be 100%. Decreased relative MTT level means decreased cell viability. Thiourea complexes with the highest cytotoxic potential assessed by MTT determination (with the lowest IC50) were chosen for subsequent assessments of cytotoxicity mechanisms.

[3] = test system: C. parapsilosis ATCC 22019; assay: MIC, twofold serial microdilution; type: cell-based, Candida parapsilosis; conditions: C. parapsilosis ATCC 22019, 24 h, 35 °C
Experimental: as §1, §2

P. aeruginosa ATCC 15442 = assay: MIC, twofold serial microdilution; type: cell-based, Pseudomonas aeruginosa; conditions: P. aeruginosa ATCC 15442, 18 h, 35 °C
Experimental: as §1, §2

P. aeruginosa ATCC 27853 = assay: MIC, twofold serial microdilution; type: cell-based, Pseudomonas aeruginosa; conditions: P. aeruginosa ATCC 27853, 18 h, 35 °C
Experimental: as §1, §2

[4] = test system: S. epidermidis ATCC 12228; assay: MIC, twofold serial microdilution; type: cell-based, Staphylococcus epidermidis; conditions: S. epidermidis ATCC 12228, 18 h, 35 °C
Experimental: as §1, §2

E. coli NCTC 10538 = assay: MIC, twofold serial microdilution; type: cell-based, Escherichia coli; conditions: E. coli NCTC 10538, 18 h, 35 °C
Experimental: as §1, §2

E. coli ATCC 25922 = assay: MIC, twofold serial microdilution; type: cell-based, Escherichia coli; conditions: E. coli ATCC 25922, 18 h, 35 °C
Experimental: as §1, §2

[5] = test system: SW620 (human metastatic colon cancer); assay: MTT cytotoxicity assay, SW620; type: cell-based; conditions: SW620, 72 h
Experimental: as §4, §5
as §6, with “viability.” for “viability. Thiourea complexes with the highest cytotoxic potential assessed by MTT determination (with the lowest IC50) were chosen for subsequent assessments of cytotoxicity mechanisms.”

Structure (SMILES) | MIC (C. albicans ATCC 90028) | MIC (C. albicans ATCC 10231) | MIC (S. aureus 586) | MIC (S. aureus 497) | MIC (S. aureus 567) | MIC (S. aureus 568) | times more active than ciprofloxacin (S. aureus 572; S. aureus 572) | MIC (S. aureus 572) | inhibition zone diameter [1] | IC50 [2] | fold more active than cisplatin [2] | MIC [3] | MIC (P. aeruginosa ATCC 15442) | MIC (P. aeruginosa ATCC 27853) | MIC [4] | MIC (E. coli NCTC 10538) | MIC (E. coli ATCC 25922) | IC50 [5]
O=[N+]([O-])c1cc([N+]2=C(Nc3ccc(I)cc3)[S][Cu-2]23[S]C(Nc2ccc(I)cc2)=[N+]3c2ccc(Cl)c([N+](=O)[O-])c2)ccc1Cl [Compound 8, Copper (II) complex with 1-(4-iodophenyl)-3-(4-chloro-3-nitrophenyl)thiourea] | 128 µg/mL | 64 µg/mL | 8 µg/mL | 8 µg/mL | 8 µg/mL | 8 µg/mL | 64 times | 4 µg/mL | 14 mm | 4.3 ± 0.5 µM | 1.2–3.1 fold | 64 µg/mL | 128 µg/mL | 128 µg/mL | 8 µg/mL | 128 µg/mL | 128 µg/mL | 17.8 ± 1.3 µM
O=[N+]([O-])c1cc([N+]2=C(Nc3ccccc3Br)[S][Cu-2]23[S]C(Nc2ccccc2Br)=[N+]3c2ccc(Cl)c([N+](=O)[O-])c2)ccc1Cl [Compound 1, Copper (II) complex with 1-(2-bromophenyl)-3-(4-chloro-3-nitrophenyl)thiourea] | ≥256 µg/mL | ≥256 µg/mL | 4 µg/mL | 8 µg/mL | 8 µg/mL | 8 µg/mL |  | 8 µg/mL | 12 mm | 9.7 ± 0.1 µM | 1.2–3.1 fold | ≥256 µg/mL | 128 µg/mL | 128 µg/mL | 16 µg/mL | 128 µg/mL | 256 µg/mL | 3.3 ± 0.2 µM
